The source of these data is patent US8945862B2, “Triple-fusion constructs and methods of monitoring human embryonic stem cells” (The Board of Trustees of the Leland Stanford Junior …, priority 2007, dated 2015).

The subject of the assay is H9^DF hESCs. The assay can be described thus: Bioluminescent imaging of transplanted hESC survival under immunosuppressive drug treatment. To be noted: for BLI signal by post-transplant day 10: single drug treatment groups. Format: in vivo, BALB/c mice. The procedure: H1, H9 and H9DF hESCs were initially maintained on top of murine embryonic fibroblasts feeder (MEF) layers as detailed in SI Methods. To prevent contamination of the transplanted hESC population with MEF, hESC colonies were separated from MEF by incubation with dispase (Invitrogen) and subcultured on feeder-free matrigel (hESC qualified, BD Biosciences) coated 6-well plates in mTeSR™ 1 maintenance medium (Stem Cell Technologies) for 2 to 5 passages. MHC expression on hESCs was evaluated by flow cytometry as detailed in SI Methods. Shortly prior to transplantation, hESCs were trypsinated, and resuspended in sterile PBS at 1×10^6 cells per 20 μl. hESC transplantation was performed by direct injection into gastrocnemius muscles of recipient mice (using a 29.5 gauge insulin syringe.
BLI was performed using the Xenogen In Vivo Imaging System as previously described (38). Briefly, mice were anesthetized with isoflurane and D-luciferin was administered intraperitoneally at a dose of 375 mg/kg body weight. At the time of imaging, animals were placed in a light-tight chamber, and photons emitted from luciferase expressing hESCs transplanted into the animals were collected with integration times of 5 sec-5 min, depending on the intensity of the bioluminescence emission. The same mice were scanned repetitively as per the study design. BLI signal was quantified in units of photons per second (Total flux) and presented as Log[photons/sec].

As to `C=CC[C@@H]1/C=C(\C)C[C@H](C)C[C@H](OC)[C@H]2O[C@@](O)(C(=O)C(=O)N3CCCC[C@H]3C(=O)O[C@H](/C(C)=C/[C@@H]3CC[C@@H](O)[C@H](OC)C3)[C@H](C)[C@@H](O)CC1=O)[C@H](C)C[C@@H]2OC` [TAC, Tacrolimus], the “BLI signal by post-transplant day 10” value is “decreased to background levels”. Take `COc1c(C)c2c(c(O)c1C/C=C(\C)CCC(=O)OCCN1CCOCC1)C(=O)OC2` [MMF, mycophenolate mofetil]: the “BLI signal by post-transplant day 10” value was “decreased to background levels”. For the same molecule, the “improvement of hESC survival by addition of MMF” value (over single TAC and/or SIR treatment) is “did not result in significant improvement”. Consider `CO[C@H]1C[C@@H]2CC[C@@H](C)[C@@](O)(O2)C(=O)C(=O)N2CCCC[C@H]2C(=O)O[C@H]([C@H](C)C[C@@H]2CC[C@@H](O)[C@H](OC)C2)CC(=O)[C@H](C)/C=C(\C)[C@@H](O)[C@@H](OC)C(=O)[C@H](C)C[C@H](C)/C=C/C=C/C=C/1C` [SIR, sirolimus], for which the “BLI signal at day 7” value (monotherapy, 1×10^6 H9^DF hESCs in gastrocnemius muscle, NT 4.98±0.04, P<0.05) stood at 6.4±0.29 Log^[photons/sec].
